Data: ChEMBL document CHEMBL5303761, “Data for DCP probe BI-3231” (2023)

Key:
[1] = molecular target: 5-hydroxytryptamine receptor 1B (Homo sapiens) (UniProt P28222); experiment: 5HT1B(H) Eurofins SafetyScreen44 (BI); settings: filed as antagonist, Compound concentration 10.0 uM
[2] = molecular target: Cannabinoid receptor 1 (Homo sapiens) (UniProt P21554); experiment: CB1(HU)_AGON Eurofins SafetyScreen44 (BI); settings: filed as agonist; Compound concentration 10.0 uM
[3] = molecular target: Prostaglandin G/H synthase 1 (Homo sapiens) (UniProt P23219); experiment: COX-1 Eurofins SafetyScreen44 (BI); settings: Compound concentration 10.0 uM
[4] = molecular target: Kappa-type opioid receptor (Homo sapiens) (UniProt P41145); experiment: KAPPA(KOP)_HU Eurofins SafetyScreen44 (BI); settings: Compound concentration 10.0 uM
[5] = molecular target: T1, 5-hydroxytryptamine receptor 1A (Homo sapiens) (UniProt P08908); experiment: 5HT1A/H Eurofins SafetyScreen44 (BI); settings: Compound concentration 10.0 uM
T1 sequence (whole entry): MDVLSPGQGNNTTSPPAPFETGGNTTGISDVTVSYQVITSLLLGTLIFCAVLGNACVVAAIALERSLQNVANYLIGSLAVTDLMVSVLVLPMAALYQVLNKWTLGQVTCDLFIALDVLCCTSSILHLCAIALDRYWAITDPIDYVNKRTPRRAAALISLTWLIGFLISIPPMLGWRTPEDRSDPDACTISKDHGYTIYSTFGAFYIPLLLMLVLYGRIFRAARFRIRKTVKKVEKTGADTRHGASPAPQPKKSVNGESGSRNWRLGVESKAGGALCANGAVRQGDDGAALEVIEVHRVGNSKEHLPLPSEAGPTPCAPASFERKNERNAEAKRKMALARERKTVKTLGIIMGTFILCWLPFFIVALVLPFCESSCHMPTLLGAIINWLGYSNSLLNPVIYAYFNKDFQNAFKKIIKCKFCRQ

[6] = molecular target: T2, Alpha-1A adrenergic receptor (Homo sapiens) (UniProt P35348); experiment: ALPHA1AH_ANTAG Eurofins SafetyScreen44 (BI); settings: filed as antagonist, Compound concentration 10.0 uM
T2 sequence (whole entry): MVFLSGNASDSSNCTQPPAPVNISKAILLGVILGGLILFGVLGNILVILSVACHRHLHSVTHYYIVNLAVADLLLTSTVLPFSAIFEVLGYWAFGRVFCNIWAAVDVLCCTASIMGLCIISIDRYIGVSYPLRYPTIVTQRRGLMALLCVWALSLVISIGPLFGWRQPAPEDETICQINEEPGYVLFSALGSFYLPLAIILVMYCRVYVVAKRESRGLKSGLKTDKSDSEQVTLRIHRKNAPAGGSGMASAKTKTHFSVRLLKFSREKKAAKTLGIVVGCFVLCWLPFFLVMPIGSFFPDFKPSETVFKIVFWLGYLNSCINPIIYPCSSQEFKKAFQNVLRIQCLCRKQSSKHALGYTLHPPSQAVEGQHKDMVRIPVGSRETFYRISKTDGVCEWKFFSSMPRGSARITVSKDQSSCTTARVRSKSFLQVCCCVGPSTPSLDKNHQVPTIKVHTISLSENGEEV

[7] = molecular target: T3, Alpha-2A adrenergic receptor (Homo sapiens) (UniProt P08913); experiment: ALPHA2A/HU Eurofins SafetyScreen44 (BI); settings: Compound concentration 10.0 uM
T3 sequence (whole entry): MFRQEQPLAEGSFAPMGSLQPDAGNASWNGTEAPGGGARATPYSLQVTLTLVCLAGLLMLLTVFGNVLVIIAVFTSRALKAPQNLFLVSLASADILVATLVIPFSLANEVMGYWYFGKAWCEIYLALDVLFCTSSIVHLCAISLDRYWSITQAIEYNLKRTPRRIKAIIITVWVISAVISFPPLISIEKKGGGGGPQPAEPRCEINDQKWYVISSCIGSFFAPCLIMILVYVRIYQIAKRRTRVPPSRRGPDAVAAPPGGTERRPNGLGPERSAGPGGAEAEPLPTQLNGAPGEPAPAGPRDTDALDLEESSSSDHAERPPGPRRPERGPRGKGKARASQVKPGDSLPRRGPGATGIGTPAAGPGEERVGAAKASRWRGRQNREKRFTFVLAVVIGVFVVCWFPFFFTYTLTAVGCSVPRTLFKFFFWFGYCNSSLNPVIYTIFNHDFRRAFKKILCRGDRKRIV

[8] = molecular target: Cannabinoid receptor 2 (Homo sapiens) (UniProt P34972); experiment: CB2/PERIPH/H Eurofins SafetyScreen44 (BI); settings: Compound concentration 10.0 uM
[9] = molecular target: Cholecystokinin receptor type A (Homo sapiens) (UniProt P32238); experiment: CCKA/H Eurofins SafetyScreen44 (BI); settings: Compound concentration 10.0 uM
[10] = molecular target: Histamine H1 receptor (Homo sapiens) (UniProt P35367); experiment: H1/PYRIL/HS Eurofins SafetyScreen44 (BI); settings: Compound concentration 10.0 uM
[11] = molecular target: Muscarinic acetylcholine receptor M3 (Homo sapiens) (UniProt P20309); experiment: M3/H Eurofins SafetyScreen44 (BI); settings: Compound concentration 10.0 uM
[12] = molecular target: voltage-gated Na+ channel (site 2) (Rattus norvegicus, UniProt F1LQQ7+O08562+O88420+O88457+P04774+P04775+P08104+P15389+P15390+Q62968); experiment: NA+/SITE2/R Eurofins SafetyScreen44 (BI); format: protein assay; settings: rat brain, probe [3H]batrachotoxinin, compound concentration 10 uM, read-out: % Ctrl
[13] = molecular target: Sodium-dependent noradrenaline transporter (Homo sapiens) (UniProt P23975); experiment: NEUP/H Eurofins SafetyScreen44 (BI); settings: Compound concentration 10.0 uM
[14] = molecular target: cGMP-inhibited 3',5'-cyclic phosphodiesterase 3A (Homo sapiens) (UniProt Q14432); experiment: PDE3A Eurofins SafetyScreen44 (BI); settings: Compound concentration 10.0 uM
[15] = molecular target: 3',5'-cyclic-AMP phosphodiesterase 4D (Homo sapiens) (UniProt Q08499); experiment: PDE4D2 Eurofins SafetyScreen44 (BI); settings: Compound concentration 10.0 uM
[16] = molecular target: Vasopressin V1a receptor (Homo sapiens) (UniProt P37288); experiment: V1A/HUM Eurofins SafetyScreen44 (BI); settings: Compound concentration 10.0 uM
[17] = molecular target: D(1B) dopamine receptor (Homo sapiens) (UniProt P21918); settings: Compound concentration 10.0 uM
[18] = molecular target: Sodium-dependent noradrenaline transporter (Homo sapiens) (UniProt P23975); settings: Compound concentration 10.0 uM
[19] = molecular target: Histamine H1 receptor (Homo sapiens) (UniProt P35367); settings: Compound concentration 10.0 uM
[20] = molecular target: Alpha-2B adrenergic receptor (Homo sapiens) (UniProt P18089); settings: Compound concentration 10.0 uM
[21] = molecular target: Muscarinic acetylcholine receptor M4 (Homo sapiens) (UniProt P08173); settings: Compound concentration 10.0 uM
[22] = molecular target: Beta-3 adrenergic receptor (Homo sapiens) (UniProt P13945); settings: Compound concentration 10.0 uM
Rattus norvegicus = organism: Rattus norvegicus; settings: Compound concentration 10.0 uM
[23] = molecular target: Alpha-1D adrenergic receptor (Homo sapiens) (UniProt P25100); settings: Compound concentration 10.0 uM
Alpha-1D adrenergic receptor (Homo sapiens), sequence (P25100 whole entry): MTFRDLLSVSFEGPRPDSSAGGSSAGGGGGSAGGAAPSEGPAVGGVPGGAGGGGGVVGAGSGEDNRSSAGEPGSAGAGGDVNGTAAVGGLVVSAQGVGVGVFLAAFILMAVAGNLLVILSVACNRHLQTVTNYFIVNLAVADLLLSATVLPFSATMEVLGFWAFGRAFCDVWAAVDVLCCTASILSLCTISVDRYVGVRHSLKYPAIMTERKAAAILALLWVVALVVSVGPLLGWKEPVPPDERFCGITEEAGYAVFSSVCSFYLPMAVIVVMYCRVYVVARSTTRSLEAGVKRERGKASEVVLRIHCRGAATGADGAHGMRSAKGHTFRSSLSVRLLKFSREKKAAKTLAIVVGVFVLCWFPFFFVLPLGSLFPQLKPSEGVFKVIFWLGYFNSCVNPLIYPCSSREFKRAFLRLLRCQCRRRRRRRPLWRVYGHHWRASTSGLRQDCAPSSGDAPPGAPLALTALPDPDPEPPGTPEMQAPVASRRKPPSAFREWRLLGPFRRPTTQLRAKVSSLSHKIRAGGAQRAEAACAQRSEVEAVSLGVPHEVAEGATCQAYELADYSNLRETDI

Histamine H1 receptor (Homo sapiens), sequence (P35367 whole entry): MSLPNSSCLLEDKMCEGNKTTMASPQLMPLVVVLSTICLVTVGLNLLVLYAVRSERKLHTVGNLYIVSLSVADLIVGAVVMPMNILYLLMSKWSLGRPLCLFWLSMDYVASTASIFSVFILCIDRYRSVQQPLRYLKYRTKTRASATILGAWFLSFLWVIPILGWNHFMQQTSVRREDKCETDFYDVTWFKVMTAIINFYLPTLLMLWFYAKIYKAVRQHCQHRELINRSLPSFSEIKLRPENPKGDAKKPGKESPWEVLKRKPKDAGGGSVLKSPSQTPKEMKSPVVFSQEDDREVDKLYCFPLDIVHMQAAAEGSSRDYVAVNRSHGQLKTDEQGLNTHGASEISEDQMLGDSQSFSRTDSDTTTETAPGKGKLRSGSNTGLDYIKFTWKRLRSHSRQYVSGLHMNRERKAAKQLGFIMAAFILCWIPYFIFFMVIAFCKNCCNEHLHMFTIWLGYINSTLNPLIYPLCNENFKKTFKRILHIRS
D(1B) dopamine receptor (Homo sapiens), sequence (P21918 whole entry): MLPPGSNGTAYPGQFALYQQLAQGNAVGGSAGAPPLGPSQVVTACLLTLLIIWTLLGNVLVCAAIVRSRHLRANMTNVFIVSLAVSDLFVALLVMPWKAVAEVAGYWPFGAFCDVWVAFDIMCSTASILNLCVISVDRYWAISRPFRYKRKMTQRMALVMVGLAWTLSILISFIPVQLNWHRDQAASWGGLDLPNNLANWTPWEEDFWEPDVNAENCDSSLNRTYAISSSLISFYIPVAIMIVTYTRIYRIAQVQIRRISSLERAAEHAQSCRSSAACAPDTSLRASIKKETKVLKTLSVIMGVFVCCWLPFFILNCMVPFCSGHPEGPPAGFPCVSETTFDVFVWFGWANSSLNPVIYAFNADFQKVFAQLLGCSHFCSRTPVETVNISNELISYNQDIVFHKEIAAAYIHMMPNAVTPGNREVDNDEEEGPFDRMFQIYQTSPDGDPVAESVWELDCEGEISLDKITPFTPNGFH
Sodium-dependent noradrenaline transporter (Homo sapiens), sequence (P23975 whole entry): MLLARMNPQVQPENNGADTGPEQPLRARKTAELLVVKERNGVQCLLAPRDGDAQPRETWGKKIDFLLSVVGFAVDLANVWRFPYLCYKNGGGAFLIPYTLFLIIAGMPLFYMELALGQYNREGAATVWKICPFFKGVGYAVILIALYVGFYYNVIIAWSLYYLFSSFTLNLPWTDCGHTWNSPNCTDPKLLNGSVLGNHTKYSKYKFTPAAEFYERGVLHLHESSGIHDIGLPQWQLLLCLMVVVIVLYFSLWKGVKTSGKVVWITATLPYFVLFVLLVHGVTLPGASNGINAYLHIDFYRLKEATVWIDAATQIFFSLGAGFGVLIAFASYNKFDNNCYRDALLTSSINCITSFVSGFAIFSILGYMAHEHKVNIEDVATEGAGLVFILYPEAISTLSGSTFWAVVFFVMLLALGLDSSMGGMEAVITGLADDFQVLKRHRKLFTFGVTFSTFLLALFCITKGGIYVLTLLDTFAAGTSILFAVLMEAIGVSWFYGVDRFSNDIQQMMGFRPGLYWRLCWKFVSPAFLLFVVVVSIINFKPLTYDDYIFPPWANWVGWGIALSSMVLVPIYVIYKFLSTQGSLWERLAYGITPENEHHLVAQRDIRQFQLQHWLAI
Beta-3 adrenergic receptor (Homo sapiens), sequence (P13945 whole entry, looked up): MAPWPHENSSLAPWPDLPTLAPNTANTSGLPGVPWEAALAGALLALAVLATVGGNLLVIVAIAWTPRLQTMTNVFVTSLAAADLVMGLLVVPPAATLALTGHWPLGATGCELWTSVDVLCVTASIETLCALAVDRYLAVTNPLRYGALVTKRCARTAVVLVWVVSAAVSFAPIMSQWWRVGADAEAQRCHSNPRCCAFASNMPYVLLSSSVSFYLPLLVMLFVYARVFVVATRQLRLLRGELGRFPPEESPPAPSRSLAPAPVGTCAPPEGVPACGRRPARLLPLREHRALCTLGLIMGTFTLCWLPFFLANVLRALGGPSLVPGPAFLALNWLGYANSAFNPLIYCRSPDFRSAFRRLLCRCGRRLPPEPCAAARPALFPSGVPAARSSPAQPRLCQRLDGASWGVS
Muscarinic acetylcholine receptor M4 (Homo sapiens), sequence (P08173 whole entry): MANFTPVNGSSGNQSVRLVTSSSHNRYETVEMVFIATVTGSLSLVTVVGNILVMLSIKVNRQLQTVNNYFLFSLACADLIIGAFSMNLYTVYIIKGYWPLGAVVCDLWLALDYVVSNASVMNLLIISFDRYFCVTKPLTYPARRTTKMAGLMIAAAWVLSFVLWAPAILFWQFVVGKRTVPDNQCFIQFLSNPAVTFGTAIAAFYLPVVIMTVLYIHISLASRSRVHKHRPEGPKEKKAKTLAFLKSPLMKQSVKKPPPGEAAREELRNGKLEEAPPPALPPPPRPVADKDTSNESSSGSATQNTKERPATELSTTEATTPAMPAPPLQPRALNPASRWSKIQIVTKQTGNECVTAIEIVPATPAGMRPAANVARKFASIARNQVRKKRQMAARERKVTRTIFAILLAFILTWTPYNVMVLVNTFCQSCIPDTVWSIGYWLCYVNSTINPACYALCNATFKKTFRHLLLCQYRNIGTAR
Alpha-2B adrenergic receptor (Homo sapiens), sequence (P18089 whole entry): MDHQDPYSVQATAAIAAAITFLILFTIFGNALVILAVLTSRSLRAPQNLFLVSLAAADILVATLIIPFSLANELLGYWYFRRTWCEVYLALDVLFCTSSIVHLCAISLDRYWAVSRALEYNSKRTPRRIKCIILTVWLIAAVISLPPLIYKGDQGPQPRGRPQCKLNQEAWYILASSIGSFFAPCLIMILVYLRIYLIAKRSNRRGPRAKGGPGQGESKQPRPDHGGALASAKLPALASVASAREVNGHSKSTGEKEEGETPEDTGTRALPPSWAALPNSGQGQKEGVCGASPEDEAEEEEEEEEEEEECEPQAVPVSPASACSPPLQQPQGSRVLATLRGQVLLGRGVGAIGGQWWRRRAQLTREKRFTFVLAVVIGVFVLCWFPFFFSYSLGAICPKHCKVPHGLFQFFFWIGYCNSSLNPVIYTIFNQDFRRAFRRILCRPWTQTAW
Muscarinic acetylcholine receptor M3 (Homo sapiens), sequence (P20309 whole entry, looked up): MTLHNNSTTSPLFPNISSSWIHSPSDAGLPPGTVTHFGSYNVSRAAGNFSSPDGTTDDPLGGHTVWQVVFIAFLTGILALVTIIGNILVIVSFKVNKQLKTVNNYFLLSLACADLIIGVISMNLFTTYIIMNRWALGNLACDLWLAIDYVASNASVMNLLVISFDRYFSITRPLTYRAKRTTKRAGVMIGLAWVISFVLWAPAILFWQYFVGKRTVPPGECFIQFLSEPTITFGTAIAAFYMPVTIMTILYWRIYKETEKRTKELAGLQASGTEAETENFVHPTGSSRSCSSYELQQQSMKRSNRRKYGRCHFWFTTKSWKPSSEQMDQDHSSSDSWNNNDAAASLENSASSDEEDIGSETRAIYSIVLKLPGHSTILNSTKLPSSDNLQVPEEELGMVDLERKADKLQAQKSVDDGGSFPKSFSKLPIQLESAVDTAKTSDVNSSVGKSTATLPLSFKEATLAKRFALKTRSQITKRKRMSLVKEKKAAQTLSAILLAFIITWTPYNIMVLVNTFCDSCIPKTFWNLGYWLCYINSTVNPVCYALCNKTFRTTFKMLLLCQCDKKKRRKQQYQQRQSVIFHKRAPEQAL
3',5'-cyclic-AMP phosphodiesterase 4D (Homo sapiens), sequence (Q08499 whole entry): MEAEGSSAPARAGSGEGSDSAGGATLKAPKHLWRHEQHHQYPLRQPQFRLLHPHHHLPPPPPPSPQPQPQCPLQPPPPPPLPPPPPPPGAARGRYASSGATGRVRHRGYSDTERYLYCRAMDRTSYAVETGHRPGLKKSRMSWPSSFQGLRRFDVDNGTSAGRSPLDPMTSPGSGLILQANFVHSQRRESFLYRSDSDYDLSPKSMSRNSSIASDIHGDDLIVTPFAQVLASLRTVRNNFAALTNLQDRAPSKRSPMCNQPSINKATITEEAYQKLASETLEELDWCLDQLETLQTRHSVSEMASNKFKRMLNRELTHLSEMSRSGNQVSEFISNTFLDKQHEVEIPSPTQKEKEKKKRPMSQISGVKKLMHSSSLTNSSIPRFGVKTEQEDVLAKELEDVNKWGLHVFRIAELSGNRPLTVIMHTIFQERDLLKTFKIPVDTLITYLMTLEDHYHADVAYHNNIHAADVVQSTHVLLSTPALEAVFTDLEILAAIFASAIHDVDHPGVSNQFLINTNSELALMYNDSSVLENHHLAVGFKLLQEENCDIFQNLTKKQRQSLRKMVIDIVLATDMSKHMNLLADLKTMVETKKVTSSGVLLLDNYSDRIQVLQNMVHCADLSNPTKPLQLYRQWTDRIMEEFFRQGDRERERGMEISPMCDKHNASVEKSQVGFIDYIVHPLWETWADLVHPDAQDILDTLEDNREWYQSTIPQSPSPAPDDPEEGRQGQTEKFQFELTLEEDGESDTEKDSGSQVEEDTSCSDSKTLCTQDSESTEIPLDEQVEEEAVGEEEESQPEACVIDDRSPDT

| SMILES | residual activity [1] [%] | residual activity [2] [%] | residual activity [3] [%] | residual activity [4] [%] | residual activity [5] [%] | residual activity [6] [%] | residual activity [7] [%] | residual activity [8] [%] | residual activity [9] [%] | residual activity [10] [%] | residual activity [11] [%] | activity at 10 µM [12] | residual activity [13] [%] | residual activity [14] [%] | residual activity [15] [%] | residual activity [16] [%] | inhibition [17] [%] | inhibition [18] [%] | inhibition [19] [%] | inhibition [20] [%] | further results |
| --- | --- | --- | --- | --- | --- | --- | --- | --- | --- | --- | --- | --- | --- | --- | --- | --- | --- | --- | --- | --- | --- |
| CCn1c(=O)c(C)cn(Cc2nnc(-c3ccc(F)c(O)c3F)s2)c1=O | 93 | 101 | 76 | 94 | 101 | 107 | 113 | 98 | 78 | 84 | 96 | 73% (not active) | 88 | 94 | 68 | 100 | 8.17 | 3.4 | 8.66 | 5.03 | inhibition [21]: -2.34%; inhibition [22]: -4.71%; inhibition (Rattus norvegicus): 23%; inhibition [23]: -1.34% |
| CCn1c(=O)c(C)cn(Cc2nnc(-c3ccc(F)c(OC)c3F)s2)c1=O | 103 | 104 | 88 | 110 | 94 | 88 | 87 | 110 | 99 | 100 | 107 | 88% (not active) | 92 | 93 | 64 | 103 | -6.46 | 3.37 | -3.42 | 2.49 | inhibition [21]: 0.65%; inhibition [22]: 6.74%; inhibition (Rattus norvegicus): -8.73%; inhibition [23]: 5.29% |
